Reference: patent publication US20250163104A1, “MACROCYCLIC IMMUNOMODULATORS” (priority 2021, published 2025)
Where a SMILES comes first, the peptide text is derived from it. Bridges are numbered along the chain shown (N, C = ends). [ ]: non-standard residue; d: D form. The star is where a group is joined. Phe(4-CONH2) = NC(=O)c1ccc(C[C@H](N)C(=O)O)cc1; Phe(4-COOH) = N[C@@H](Cc1ccc(C(=O)O)cc1)C(=O)O; Phe(2-CF3) = N[C@@H](Cc1ccccc1C(F)(F)F)C(=O)O; Phe(4-CH2NH2) = NCc1ccc(C[C@H](N)C(=O)O)cc1; Bip = N[C@@H](Cc1ccc(-c2ccccc2)cc1)C(=O)O; Phe(3-F) = N[C@@H](Cc1cccc(F)c1)C(=O)O; Phe(3-Me) = Cc1cccc(C[C@H](N)C(=O)O)c1; Gly(cPent) = N[C@H](C(=O)O)C1CCCC1; Val(3-OH) = CC(C)(O)[C@H](N)C(=O)O; 2Pal = N[C@@H](Cc1ccccn1)C(=O)O; 4Pal = N[C@@H](Cc1ccncc1)C(=O)O; Cha = N[C@@H](CC1CCCCC1)C(=O)O; Cit = NC(=O)NCCC[C@H](N)C(=O)O; hSer = N[C@@H](CCO)C(=O)O; Carboxymethyl = O=C(O)C*; Nle = CCCC[C@H](N)C(=O)O; Orn = NCCC[C@H](N)C(=O)O; Dab = NCC[C@H](N)C(=O)O; Dap = NC[C@H](N)C(=O)O

target: T1, human PD-1 / PD-L1-Ig binding on Jurkat cell line over-expressing human PD-1 (Jurkat-PD-1) (Homo sapiens, UniProt Q15116); test: Jurkat-PD-1 Cell Binding High-Content Screening Assay (CBA); assay type: cell-based; settings: Jurkat-PD-1 cells, PE-labeled PD-L1-Ig 20 nM final; read-out: Jurkat HPD1_PDL1 IC50
T1 construct: expressed in transfected cells; host or cells: Jurkat
T1 sequence (Q15116 25-288): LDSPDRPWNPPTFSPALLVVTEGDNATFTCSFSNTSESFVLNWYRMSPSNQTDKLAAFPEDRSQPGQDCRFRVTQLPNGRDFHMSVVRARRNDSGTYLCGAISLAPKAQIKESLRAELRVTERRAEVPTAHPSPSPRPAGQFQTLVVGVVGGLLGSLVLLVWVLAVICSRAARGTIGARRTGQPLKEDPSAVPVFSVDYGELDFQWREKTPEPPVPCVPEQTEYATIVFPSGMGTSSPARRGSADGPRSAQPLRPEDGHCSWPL
Outline: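 Jurkat cells over-expressing human PD-1, in DMEM/10% FCS, pre-incubated with compound 2 h at 37° C. PE-labeled human PD-L1-Ig (20 nM final) added for 1 h; cells fixed in paraformaldehyde with Hoechst 33342 nuclear stain, washed, and bound fluorescence quantified by high-content imaging.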

SMILES	IC50 [nM]
CC(C)C[C@@H]1NC(=O)[C@H](Cc2c[nH]c3ccccc23)NC(=O)[C@H](CC(=O)O)NC(=O)[C@H](Cc2ccc(O)cc2)NC(=O)[C@H](Cc2ccccc2)NC(=O)CSC[C@@H](C(=O)N[C@@H](C)C(N)=O)NC(=O)[C@H](CO)NC(=O)[C@H](C(C)C)NC(=O)[C@H](CC(C)C)NC(=O)[C@H](CC(N)=O)NC(=O)[C@@H](C)NC(=O)[C@H](CN)NC(=O)[C@H](C(C)C)NC(=O)[C@H](Cc2ccc(-c3ccccc3)cc2)NC1=O [Compound 1075] ({CH2CO}-FYDWL[Bip]V[Dap][dA]NLVSCA-NH2; thioether N-14)	50.1
CC(C)C[C@H]1NC(=O)[C@H](CCCN)NC(=O)[C@H](CCC(=O)O)NC(=O)[C@H](Cc2ccc(-c3ccccc3)cc2)NC(=O)[C@H](C(C)C)NC(=O)[C@H](Cc2c[nH]c3ccccc23)NC(=O)[C@H](CC(=O)O)NC(=O)[C@H](Cc2ccc(OCC(=O)O)cc2)NC(=O)[C@H](CN)NC(=O)CSC[C@@H](C(=O)N[C@@H](C)C(N)=O)NC(=O)[C@H]([C@@H](C)O)NC(=O)[C@H](C(C)C)NC(=O)[C@H](Cc2ccccc2)NC(=O)[C@H](CCN)NC1=O [Compound 1666] ({CH2CO}-[Dap]Y(Carboxymethyl)DWV[Bip]E[Orn][dL][Dab]FVTCA-NH2; thioether N-14)	17.3
CC(C)C[C@@H]1NC(=O)[C@H](CCN)NC(=O)[C@@H](CC(C)C)NC(=O)[C@H](CCN)NC(=O)[C@H](CCC(=O)O)NC(=O)[C@H](Cc2ccc(-c3ccccc3)cc2)NC(=O)[C@H](C(C)C)NC(=O)[C@H](Cc2c[nH]c3ccccc23)NC(=O)[C@H](CC(=O)O)NC(=O)[C@H](Cc2ccc(OCC(=O)O)cc2)NC(=O)[C@H](Cc2ccc(OCC(=O)O)cc2)NC(=O)CSC[C@@H](C(=O)N[C@@H](C)C(N)=O)NC(=O)[C@H](CO)NC(=O)[C@H](C(C)C)NC1=O [Compound 1268] ({CH2CO}-Y(Carboxymethyl)Y(Carboxymethyl)DWV[Bip]E[Dab][dL][Dab]LVSCA-NH2; thioether N-14)	24.6
CC(C)C[C@H]1NC(=O)[C@H](CCCN)NC(=O)[C@H](CCC(=O)O)NC(=O)[C@H](Cc2ccc(-c3ccccc3)cc2)NC(=O)[C@H](C(C)C)NC(=O)[C@H](Cc2c[nH]c3ccccc23)NC(=O)[C@H](CC(=O)O)NC(=O)[C@H](Cc2ccc(C(=O)O)cc2)NC(=O)[C@H](CN)NC(=O)CSC[C@@H](C(=O)N[C@@H](C)C(N)=O)NC(=O)[C@H]([C@@H](C)O)NC(=O)[C@H](C(C)C)NC(=O)[C@H](CC2CCCCC2)NC(=O)[C@H](CCN)NC1=O [Compound 2159]	10.4
COCC[C@@H]1NC(=O)[C@H](CN)NC(=O)CSC[C@@H](C(=O)N[C@@H](C)C(N)=O)NC(=O)[C@H]([C@@H](C)O)NC(=O)[C@H](C(C)C)NC(=O)[C@H](CC2CCCCC2)NC(=O)[C@H](CCN)NC(=O)[C@@H](CC(C)C)NC(=O)[C@H](CCCN)NC(=O)[C@H](CCCNC(N)=O)NC(=O)[C@H](Cc2ccc(-c3ccccc3)cc2)NC(=O)[C@H](C(C)C)NC(=O)[C@H](Cc2c[nH]c3ccccc23)NC(=O)[C@H](CC(=O)O)NC1=O [Compound 2133] ({CH2CO}-[Dap][hSer](Me)DWV[Bip][Cit][Orn][dL][Dab][Cha]VTCA-NH2; thioether N-14)	24.6
CC(C)C[C@@H]1NC(=O)[C@H](CCN)NC(=O)[C@@H](CC(C)C)NC(=O)[C@H](CCCN)NC(=O)[C@H](C(C)C)NC(=O)[C@H](Cc2ccc(-c3ccccc3)cc2)NC(=O)[C@H](C(C)C)NC(=O)[C@H](Cc2c[nH]c3ccccc23)NC(=O)[C@H](CC(=O)O)NC(=O)[C@H](Cc2ccc(OCC(=O)O)cc2)NC(=O)[C@H](Cc2ccc(OCC(=O)O)cc2)NC(=O)CSC[C@@H](C(=O)N[C@@H](C)C(N)=O)NC(=O)[C@H]([C@@H](C)O)NC(=O)[C@H](C(C)C)NC1=O [Compound 1245] ({CH2CO}-Y(Carboxymethyl)Y(Carboxymethyl)DWV[Bip]V[Orn][dL][Dab]LVTCA-NH2; thioether N-14)	20.8
Cc1cccc(C[C@@H]2NC(=O)[C@H](CC(=O)O)NC(=O)[C@H](Cc3ccc(C(=O)O)cc3)NC(=O)[C@H](CN)NC(=O)CSC[C@@H](C(N)=O)NC(=O)[C@H](CO)NC(=O)[C@H](C(C)C)NC(=O)[C@H](CC3CCCCC3)NC(=O)[C@H](CCN)NC(=O)[C@@H](CC(C)C)NC(=O)[C@H](CCCN)NC(=O)[C@H](C(C)C)NC(=O)[C@H](Cc3ccc(-c4ccccc4)cc3)NC(=O)[C@H](Cc3ccc(CN)cc3)NC2=O)c1 [Compound 2031] ({CH2CO}-[Dap][Phe(4-COOH)]D[Phe(3-Me)][Phe(4-CH2NH2)][Bip]V[Orn][dL][Dab][Cha]VSC-NH2; thioether N-14)	10.9

Continued, values first:

IC50 [nM]	SMILES
11.8	CC(C)C[C@@H]1NC(=O)[C@H](Cc2c[nH]c3ccccc23)NC(=O)[C@H](CC(=O)O)NC(=O)[C@H](Cc2ccncc2)NC(=O)[C@H](Cc2ccc(OCC(=O)O)cc2)NC(=O)CSC[C@@H](C(=O)NCC(N)=O)NC(=O)[C@H](CO)NC(=O)[C@H](C(C)C)NC(=O)[C@H](CC(C)C)NC(=O)[C@H](CC(N)=O)NC(=O)[C@@H](CC(C)C)NC(=O)[C@H](CCN)NC(=O)[C@H](C(C)C)NC(=O)[C@H](Cc2ccc(-c3ccccc3)cc2)NC1=O [Compound 1282] ({CH2CO}-Y(Carboxymethyl)[4Pal]DWL[Bip]V[Dab][dL]NLVSCG-NH2; thioether N-14)
4.9	Cc1cccc(C[C@@H]2NC(=O)[C@H](CC(=O)O)NC(=O)[C@H](Cc3ccc(C(N)=O)cc3)NC(=O)[C@H](Cc3ccncc3)NC(=O)CSC[C@@H](C(=O)N[C@@H](CCN)C(N)=O)NC(=O)[C@H](CO)NC(=O)[C@H](C(C)(C)O)NC(=O)[C@H](CC3CCCCC3)NC(=O)[C@H](CCN)NC(=O)[C@@H](CC(C)C)NC(=O)[C@H](CCCN)NC(=O)[C@H](Cc3ccc(OCC(=O)O)cc3)NC(=O)[C@H](Cc3ccc(-c4ccccc4)cc3)NC(=O)[C@H](Cc3ccc(OCC(=O)O)cc3)NC2=O)c1 [Compound 2636] ({CH2CO}-[4Pal][Phe(4-CONH2)]D[Phe(3-Me)]Y(Carboxymethyl)[Bip]Y(Carboxymethyl)[Orn][dL][Dab][Cha][Val(3-OH)]SC[Dab]-NH2; thioether N-14)
43.7	CC(C)C[C@H]1NC(=O)[C@H](CCCN)NC(=O)[C@H](CCC(=O)O)NC(=O)[C@H](Cc2ccc(-c3ccccc3)cc2)NC(=O)[C@H](C(C)C)NC(=O)[C@H](Cc2c[nH]c3ccccc23)NC(=O)[C@H](CC(=O)O)NC(=O)[C@H](Cc2ccc(OCC(=O)O)cc2)NC(=O)[C@H](CN)NC(=O)CSC[C@@H](C(=O)N[C@@H](C)C(N)=O)NC(=O)[C@H]([C@@H](C)O)NC(=O)[C@H](C(C)C)NC(=O)[C@H](Cc2ccccc2C(F)(F)F)NC(=O)[C@H](CCN)NC1=O [Compound 1486] ({CH2CO}-[Dap]Y(Carboxymethyl)DWV[Bip]E[Orn][dL][Dab][Phe(2-CF3)]VTCA-NH2; thioether N-14)
27.9	CC(C)C[C@H]1NC(=O)[C@H](CCCN)NC(=O)[C@H](CCC(=O)O)NC(=O)[C@H](Cc2ccc(-c3ccccc3)cc2)NC(=O)[C@H](C(C)C)NC(=O)[C@H](Cc2ccccn2)NC(=O)[C@H](CC(=O)O)NC(=O)[C@H](Cc2ccc(OCC(=O)O)cc2)NC(=O)[C@H](CN)NC(=O)CSC[C@@H](C(=O)N[C@@H](C)C(N)=O)NC(=O)[C@H]([C@@H](C)O)NC(=O)[C@H](C(C)C)NC(=O)[C@H](CC2CCCCC2)NC(=O)[C@H](CCN)NC1=O [Compound 2154] ({CH2CO}-[Dap]Y(Carboxymethyl)D[2Pal]V[Bip]E[Orn][dL][Dab][Cha]VTCA-NH2; thioether N-14)
8.9	CCCC[C@@H]1NC(=O)[C@H](CCN)NC(=O)[C@@H](CC(C)C)NC(=O)[C@H](CCCN)NC(=O)[C@H](C(C)C)NC(=O)[C@H](Cc2ccc(-c3ccccc3)cc2)NC(=O)[C@H](C(C)C)NC(=O)[C@H](Cc2cccc(C)c2)NC(=O)[C@H](CC(=O)O)NC(=O)[C@H](Cc2ccc(OCC(=O)O)cc2)NC(=O)[C@H](CN)NC(=O)CSC[C@@H](C(=O)N[C@@H](C)C(N)=O)NC(=O)[C@H]([C@@H](C)O)NC(=O)[C@H](C(C)C)NC1=O [Compound 1211] ({CH2CO}-[Dap]Y(Carboxymethyl)D[Phe(3-Me)]V[Bip]V[Orn][dL][Dab][Nle]VTCA-NH2; thioether N-14)
18.8	CC(C)C[C@H]1NC(=O)[C@H](CCCN)NC(=O)[C@H](CCCNC(N)=O)NC(=O)[C@H](Cc2ccc(-c3ccccc3)cc2)NC(=O)[C@H](C(C)C)NC(=O)[C@H](Cc2c[nH]c3ccccc23)NC(=O)[C@H](CC(=O)O)NC(=O)[C@H](Cc2cccc(F)c2)NC(=O)[C@H](CN)NC(=O)CSC[C@@H](C(=O)N[C@@H](C)C(N)=O)NC(=O)[C@H]([C@@H](C)O)NC(=O)[C@H](C(C)C)NC(=O)[C@H](CC2CCCCC2)NC(=O)[C@H](CCN)NC1=O [Compound 2097] ({CH2CO}-[Dap][Phe(3-F)]DWV[Bip][Cit][Orn][dL][Dab][Cha]VTCA-NH2; thioether N-14)
17.7	CCCC[C@@H]1NC(=O)[C@H](CCN)NC(=O)[C@@H](CC(C)C)NC(=O)[C@H](CCCN)NC(=O)[C@H](CCCNC(N)=O)NC(=O)[C@H](Cc2ccc(-c3ccccc3)cc2)NC(=O)[C@H](C(C)C)NC(=O)[C@H](Cc2cccc(C)c2)NC(=O)[C@H](CC(=O)O)NC(=O)[C@H](Cc2ccc(C(=O)O)cc2)NC(=O)[C@H](Cc2ccncc2)NC(=O)CSC[C@@H](C(=O)N[C@@H](C)C(N)=O)NC(=O)[C@H]([C@@H](C)O)NC(=O)[C@H](C(C)C)NC1=O [Compound 1189] ({CH2CO}-[4Pal][Phe(4-COOH)]D[Phe(3-Me)]V[Bip][Cit][Orn][dL][Dab][Nle]VTCA-NH2; thioether N-14)
7.1	CC(C)C[C@H]1NC(=O)[C@H](CCCN)NC(=O)[C@H](CCCNC(N)=O)NC(=O)[C@H](Cc2ccc(-c3ccccc3)cc2)NC(=O)[C@H](C2CCCC2)NC(=O)[C@H](Cc2c[nH]c3ccccc23)NC(=O)[C@H](CC(=O)O)NC(=O)[C@H](Cc2ccc(OCC(=O)O)cc2)NC(=O)[C@H](CN)NC(=O)CSC[C@@H](C(=O)N[C@@H](C)C(N)=O)NC(=O)[C@H]([C@@H](C)O)NC(=O)[C@H](C(C)C)NC(=O)[C@H](CC2CCCCC2)NC(=O)[C@H](CCN)NC1=O [Compound 1368] ({CH2CO}-[Dap]Y(Carboxymethyl)DW[Gly(cPent)][Bip][Cit][Orn][dL][Dab][Cha]VTCA-NH2; thioether N-14)
